Reference: ChEMBL document CHEMBL1151757, “Synthesis, radiosynthesis, and biological evaluation of fluorine-18-labeled 2beta-carbo(fluoroalkoxy)-3beta-(3'-((Z)-2-haloethenyl)phenyl)nortropanes: candidate radioligands for in vivo imaging of the serotonin transporter with positron emission tomography” (J Med Chem, 2008)

Legend:
[1] = Ratio of drug uptake in pons to cerebellum in anesthetized cynomolgus monkey after 125 mins postinjection; format: ADME, organism-based, Macaca fascicularis; details: in vivo
[2] = Ratio of drug uptake in pons to cerebellum in anesthetized cynomolgus monkey after 175 mins postinjection; format: ADME, organism-based, Macaca fascicularis; details: in vivo
[3] = Ratio of drug uptake in medulla to cerebellum in anesthetized cynomolgus monkey after 9.5 mins postinjection; format: ADME, organism-based, Macaca fascicularis; details: in vivo
[4] = Ratio of drug uptake in medulla to cerebellum in anesthetized cynomolgus monkey after 95 mins postinjection; format: ADME, organism-based, Macaca fascicularis; details: in vivo
[5] = Drug uptake in anesthetized cynomolgus monkey brain occipital lobe after 9.5 mins postinjection; format: ADME, organism-based, Macaca fascicularis; details: in vivo
[6] = Drug uptake in anesthetized cynomolgus monkey brain occipital lobe after 15.5 mins postinjection; format: ADME, organism-based, Macaca fascicularis; details: in vivo
[7] = Drug uptake in anesthetized cynomolgus monkey brain occipital lobe after 18.5 mins postinjection; format: ADME, organism-based, Macaca fascicularis; details: in vivo
[8] = Drug uptake in anesthetized cynomolgus monkey brain occipital lobe after 165 mins postinjection; format: ADME, organism-based, Macaca fascicularis; details: in vivo, 2.75 h
[9] = Drug uptake in anesthetized cynomolgus monkey brain occipital lobe after 235 mins postinjection; format: ADME, organism-based, Macaca fascicularis; details: in vivo
[10] = Drug uptake in anesthetized cynomolgus monkey brain frontal lobe after 15.5 mins postinjection; format: ADME, organism-based, Macaca fascicularis; details: in vivo
[11] = Drug uptake in anesthetized cynomolgus monkey brain frontal lobe after 18.5 mins postinjection; format: ADME, organism-based, Macaca fascicularis; details: in vivo
[12] = Drug uptake in anesthetized cynomolgus monkey brain frontal lobe after 75 mins postinjection; format: ADME, organism-based, Macaca fascicularis; details: in vivo, 1.25 h
[13] = Drug uptake in anesthetized cynomolgus monkey brain frontal lobe after 145 mins postinjection; format: ADME, organism-based, Macaca fascicularis; details: in vivo
[14] = Drug uptake in anesthetized cynomolgus monkey brain frontal lobe after 155 mins postinjection; format: ADME, organism-based, Macaca fascicularis; details: in vivo
[15] = Ratio of drug uptake in occipital lobe to cerebellum in anesthetized cynomolgus monkey after 95 mins postinjection; format: ADME, organism-based, Macaca fascicularis; details: in vivo
[16] = Ratio of drug uptake in occipital lobe to cerebellum in anesthetized cynomolgus monkey after 175 mins postinjection; format: ADME, organism-based, Macaca fascicularis; details: in vivo
[17] = system: Putamen; experiment: Drug uptake in anesthetized cynomolgus monkey brain putamen after 125 mins postinjection; format: ADME, organism-based, Macaca fascicularis; details: in vivo
[18] = system: Putamen; experiment: Drug uptake in anesthetized cynomolgus monkey brain putamen after 235 mins postinjection; format: ADME, organism-based, Macaca fascicularis; details: in vivo
[19] = Ratio of drug uptake in occipital lobe to cerebellum in anesthetized cynomolgus monkey after 185 mins postinjection; format: ADME, organism-based, Macaca fascicularis; details: in vivo
[20] = Ratio of drug uptake in frontal lobe to cerebellum in anesthetized cynomolgus monkey after 125 mins postinjection; format: ADME, organism-based, Macaca fascicularis; details: in vivo
[21] = system: Midbrain; experiment: Drug uptake in anesthetized cynomolgus monkey brain midbrain after 155 mins postinjection; format: ADME, organism-based, Macaca fascicularis; details: in vivo
[22] = system: Pons; experiment: Drug uptake in anesthetized cynomolgus monkey brain pons after 1.5 mins postinjection; format: ADME, organism-based, Macaca fascicularis; details: in vivo, 0.025 h
[23] = system: Pons; experiment: Drug uptake in anesthetized cynomolgus monkey brain pons after 4.5 mins postinjection; format: ADME, organism-based, Macaca fascicularis; details: in vivo, 0.075 h
[24] = system: Pons; experiment: Drug uptake in anesthetized cynomolgus monkey brain pons after 9.5 mins postinjection; format: ADME, organism-based, Macaca fascicularis; details: in vivo
[25] = system: Pons; experiment: Drug uptake in anesthetized cynomolgus monkey brain pons after 95 mins postinjection; format: ADME, organism-based, Macaca fascicularis; details: in vivo
[26] = system: Midbrain; experiment: Drug uptake in anesthetized cynomolgus monkey brain midbrain after 205 mins postinjection; format: ADME, organism-based, Macaca fascicularis; details: in vivo
[27] = system: Pons; experiment: Drug uptake in anesthetized cynomolgus monkey brain pons after 195 mins postinjection; format: ADME, organism-based, Macaca fascicularis; details: in vivo, 3.25 h
[28] = system: Medulla; experiment: Drug uptake in anesthetized cynomolgus monkey brain medulla after 185 mins postinjection; format: ADME, organism-based, Macaca fascicularis; details: in vivo
[29] = system: Medulla; experiment: Drug uptake in anesthetized cynomolgus monkey brain medulla after 205 mins postinjection; format: ADME, organism-based, Macaca fascicularis; details: in vivo
[30] = Drug uptake in anesthetized cynomolgus monkey brain occipital lobe after 195 mins postinjection; format: ADME, organism-based, Macaca fascicularis; details: in vivo, 3.25 h
[31] = Ratio of drug uptake in caudate to cerebellum in anesthetized cynomolgus monkey after 0.5 mins postinjection; format: ADME, organism-based, Macaca fascicularis; details: in vivo
[32] = Ratio of drug uptake in frontal lobe to cerebellum in anesthetized cynomolgus monkey after 195 mins postinjection; format: ADME, organism-based, Macaca fascicularis; details: in vivo, 3.25 h
[33] = Ratio of drug uptake in frontal lobe to cerebellum in anesthetized cynomolgus monkey after 205 mins postinjection; format: ADME, organism-based, Macaca fascicularis; details: in vivo
[34] = system: Caudate; experiment: Drug uptake in anesthetized cynomolgus monkey brain caudate after 195 mins postinjection; format: ADME, organism-based, Macaca fascicularis, Caudate nucleus; details: in vivo, 3.25 h

O=C(OCC[18F])C1C2CCC(CC1c1cccc(/C=C\Br)c1)N2 (centres undefined)
Ratio [1]: 1.6 | Ratio [2]: 1.8 | Ratio [3]: 1.2 | Ratio [4]: 1.5 | Drug uptake [5]: 2.66 | Drug uptake [6]: 2.99 | Drug uptake [7]: 2.89 | Drug uptake [8]: 2.5 | Drug uptake [9]: 1.94 | Drug uptake [10]: 2.38 | Drug uptake [11]: 2.39 | Drug uptake [12]: 2.86 | Drug uptake [13]: 2.52 | Drug uptake [14]: 2.46 | Ratio [15]: 1 | Ratio [16]: 1.2 | Drug uptake [17]: 4.59 | Drug uptake [18]: 2.98 | Ratio [19]: 1.3 | Ratio [20]: 1 | Drug uptake [21]: 4.54 | Drug uptake [22]: 0.09 | Drug uptake [23]: 1.78 | Drug uptake [24]: 3.15 | Drug uptake [25]: 4.36 | Drug uptake [26]: 4 | Drug uptake [27]: 3.63 | Drug uptake [28]: 3.61 | Drug uptake [29]: 3.14 | Drug uptake [30]: 2.02 | Ratio [31]: 0.9 | Ratio [32]: 1.2 | Ratio [33]: 1.1 | Drug uptake [34]: 3.08
